Bioavailability and aqueous solubility data for one compound are collected here from patent publication US20170135990A1, “PHARMACEUTICAL COMPOSITIONS COMPRISING A 5,5-FUSED HETEROARYLENE FLAVIVIRIDAE INHIBITOR AND THEIR USE FOR TREATING OR PREVENTING FLAVIVIRIDAE INFECTION” (IDENIX PHARMACEUTICALS LLC, priority 2014, published 2017).

The nature of data set [1]: pharmacokinetic study in the monkey, PEG200 solution formulation. The class given is in vivo. Particulars: 500 mg/kg, fed conditions. The protocol:
Initial pharmacokinetic studies on compound A1 were performed both in vitro and in the monkey using a solution formulation containing PEG200. Compound A1 in the PEG200 solution was determined to have bioavailability of 0.1% F when administered at a dose of 500 mg/kg to the monkey under fed conditions.

Data set [2] is described as follows: aqueous solubility and permeability, BCS classification. The class given is physicochemical. The text has this: Compound A1 has a low aqueous solubility and low permeability and, thus, is classified as a BCS class IV compound, which presents a significant formulation challenge. Cook et al., AAPS J. 2008, 10, 306-310.

Regarding `COC(=O)N[C@H](C(=O)N1CCC[C@H]1c1nc2cc(-c3csc4c(-c5ccc(-c6cnc([C@@H]7CCCN7C(=O)[C@H](NC(=O)OC)c7ccccc7)[nH]6)cc5)csc34)ccc2[nH]1)C(C)C` [compound A1, methyl N-[(1R)-2-[(2S)-2-[5-[4-[6-[2-[(2S)-1-[(2S)-2-(methoxycarbonylamino)-3-methyl-butanoyl]pyrrolidin-2-yl]-3H-benzimidazol-5-yl]thieno[3,2-b]thiophen-3-yl]phenyl]-1H-imidazol-2-yl]pyrrolidin-1-yl]-2-oxo-1-phenyl-ethyl]carbamate], the bioavailability in data set [1] was 0.1 % F. Besides, the aqueous solubility result in data set [2] is “low”.
